This is an account of results in ChEMBL document CHEMBL3769347, “Discovery of high affinity inhibitors of Leishmania donovani N-myristoyltransferase” (Medchemcomm, 2015).

Series [1] is described as follows: Cytotoxicity in BALB/c mouse BMDM cells after 72 hrs by Alamar Blue assay. To be noted: bone marrow-derived macrophages (BMDM cells), read-out: LD50. Type of series: cell-based. (In general: The colour change of resazurin is a common sign of viable cells or microbes.)
The target of series [2] is T1, Glycylpeptide N-tetradecanoyltransferase (Plasmodium falciparum (isolate 3D7), UniProt Q8ILW6).
T1 sequence (Q8ILW6 whole entry): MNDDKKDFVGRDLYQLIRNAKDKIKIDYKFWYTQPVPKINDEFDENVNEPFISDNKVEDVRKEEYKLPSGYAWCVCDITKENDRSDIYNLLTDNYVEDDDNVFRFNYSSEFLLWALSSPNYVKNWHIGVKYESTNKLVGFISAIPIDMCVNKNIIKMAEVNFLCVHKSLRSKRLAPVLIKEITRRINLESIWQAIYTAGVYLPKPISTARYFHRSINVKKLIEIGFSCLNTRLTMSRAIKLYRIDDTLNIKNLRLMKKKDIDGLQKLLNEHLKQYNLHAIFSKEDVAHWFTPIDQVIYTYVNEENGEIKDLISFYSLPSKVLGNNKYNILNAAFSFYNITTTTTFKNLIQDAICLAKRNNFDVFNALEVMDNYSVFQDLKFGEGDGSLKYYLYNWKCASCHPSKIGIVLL
Nature of the series: Binding affinity to Plasmodium falciparum N-myristoyltransferase by fluorescence analysis.

By Ki is commonly meant a measure of affinity in units of concentration, obtained from inhibition or displacement.

In the case of `COc1cccc(Cc2noc(-c3cc(OC)ccc3OC3CCNCC3)n2)c1`, in series [1], the CC50 at 72 h was 27.9 µM.

`COc1cccc(COC(=O)c2sccc2OC2CCNCC2)c1` had an inhibition constant (Ki) in series [2] of over 100 µM. `Cc1nn(C)c(C)c1Cc1nnc(-c2cc(Cl)ccc2OC2CCNCC2)o1`: the CC50 at 72 h in series [1] is over 90 µM. As to `COc1cccc(Cc2noc(-c3ccc(F)cc3OC3CCNCC3)n2)c1`, the CC50 at 72 h in series [1] amounted to 29.5 µM. On to `COc1cccc(Cc2noc(-c3cc(Cl)ccc3OC3CCNCC3)n2)c1`, for which the CC50 at 72 h in series [1] stood at 18 µM.
